Conditions: Meth-A cancer bearing BALB/c mouse, 100 μl of 2 mg/ml in PBS via tail vein, organs collected after 1 hour
Method: (i) Preparation of a cancer bearing mouse Meth-A cells cultured in abdominal cavity of a BALB/c mouse were harvested by administrating 50 ml saline to the mouse. The cells were collected by centrifugation and resuspended in PBS (50 ml). The cells were counted and prepared at 2.0×10^7/ml. 100 μl of the solution containing the cells was subcutaneously injected to a left foot of another BALE/c mouse. […] After 1 hour, the mouse was dissected and the necessary organs (blood (200 μl), liver, kidney, cancer) were collected into microtubes. 1× Lysis buffer (500 μl) was added to each of the tubes and the organs were mashed by using beads. The microtubes were centrifuged (14,000 rpm, 30 min) for the debris to be precipitated and the supernatants were collected and subjected to multiple resonance measurement utilizing magnetic coherence transfer between three elements of ^1H—^13C—^15N.

In the case of `[13CH3][15N+]([13CH3])([13CH3])CCO` [^13C3—^15N-choline chloride], the “signals derived from methyl groups of cholines (triple resonance NMR, 3.0 ppm) in cancer” value (cancer tissue lysate supernatant) is reported as “detected” and the “signals derived from methyl groups of cholines (triple resonance NMR, 3.0 ppm) in kidney” value (kidney lysate supernatant) is reported as “detected”.
